Assay [1] addresses T1, hAR (Homo sapiens, UniProt P10275).
T1 construct: expressed in transfected cells; host or cells: CV-1 cells (African green monkey kidney fibroblasts)
T1 sequence (P10275 1-920): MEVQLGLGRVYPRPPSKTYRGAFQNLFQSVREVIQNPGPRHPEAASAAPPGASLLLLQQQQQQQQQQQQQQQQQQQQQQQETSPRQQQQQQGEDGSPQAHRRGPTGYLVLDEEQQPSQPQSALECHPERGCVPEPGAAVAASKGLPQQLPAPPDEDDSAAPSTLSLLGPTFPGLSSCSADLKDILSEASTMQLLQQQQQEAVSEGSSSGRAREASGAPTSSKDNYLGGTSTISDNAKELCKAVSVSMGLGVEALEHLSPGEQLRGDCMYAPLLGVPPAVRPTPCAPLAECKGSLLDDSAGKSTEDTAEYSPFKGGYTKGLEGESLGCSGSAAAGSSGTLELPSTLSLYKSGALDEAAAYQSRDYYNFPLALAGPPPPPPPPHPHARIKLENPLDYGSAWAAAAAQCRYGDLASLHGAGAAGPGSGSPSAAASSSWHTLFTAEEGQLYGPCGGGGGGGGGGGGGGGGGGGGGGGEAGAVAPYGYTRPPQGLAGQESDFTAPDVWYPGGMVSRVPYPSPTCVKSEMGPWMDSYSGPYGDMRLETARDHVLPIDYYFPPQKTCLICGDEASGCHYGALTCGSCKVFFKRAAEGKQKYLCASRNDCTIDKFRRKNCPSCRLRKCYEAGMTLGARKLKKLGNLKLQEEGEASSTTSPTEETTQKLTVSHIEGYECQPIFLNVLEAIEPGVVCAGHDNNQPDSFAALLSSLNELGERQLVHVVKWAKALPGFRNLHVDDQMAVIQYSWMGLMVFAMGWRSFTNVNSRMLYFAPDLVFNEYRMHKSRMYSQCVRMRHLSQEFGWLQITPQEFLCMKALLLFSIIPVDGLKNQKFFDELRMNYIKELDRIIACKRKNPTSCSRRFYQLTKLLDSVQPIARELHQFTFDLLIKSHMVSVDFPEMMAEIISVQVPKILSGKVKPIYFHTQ
The assay is described as follows: co-transfection assay, AR agonist, CV-1 cells. It counts as cell-based. The following applies: for AR Agonist CV-1 Cells Efficacy (%): hAR in CV-1 cells, relative to maximum LUC production by reference agonist.

Assay [2] deals with T2, MR (Homo sapiens, UniProt P08235).
T2 construct: expressed in transfected cells; host or cells: CV-1 cells
T2 sequence (P08235 1-984): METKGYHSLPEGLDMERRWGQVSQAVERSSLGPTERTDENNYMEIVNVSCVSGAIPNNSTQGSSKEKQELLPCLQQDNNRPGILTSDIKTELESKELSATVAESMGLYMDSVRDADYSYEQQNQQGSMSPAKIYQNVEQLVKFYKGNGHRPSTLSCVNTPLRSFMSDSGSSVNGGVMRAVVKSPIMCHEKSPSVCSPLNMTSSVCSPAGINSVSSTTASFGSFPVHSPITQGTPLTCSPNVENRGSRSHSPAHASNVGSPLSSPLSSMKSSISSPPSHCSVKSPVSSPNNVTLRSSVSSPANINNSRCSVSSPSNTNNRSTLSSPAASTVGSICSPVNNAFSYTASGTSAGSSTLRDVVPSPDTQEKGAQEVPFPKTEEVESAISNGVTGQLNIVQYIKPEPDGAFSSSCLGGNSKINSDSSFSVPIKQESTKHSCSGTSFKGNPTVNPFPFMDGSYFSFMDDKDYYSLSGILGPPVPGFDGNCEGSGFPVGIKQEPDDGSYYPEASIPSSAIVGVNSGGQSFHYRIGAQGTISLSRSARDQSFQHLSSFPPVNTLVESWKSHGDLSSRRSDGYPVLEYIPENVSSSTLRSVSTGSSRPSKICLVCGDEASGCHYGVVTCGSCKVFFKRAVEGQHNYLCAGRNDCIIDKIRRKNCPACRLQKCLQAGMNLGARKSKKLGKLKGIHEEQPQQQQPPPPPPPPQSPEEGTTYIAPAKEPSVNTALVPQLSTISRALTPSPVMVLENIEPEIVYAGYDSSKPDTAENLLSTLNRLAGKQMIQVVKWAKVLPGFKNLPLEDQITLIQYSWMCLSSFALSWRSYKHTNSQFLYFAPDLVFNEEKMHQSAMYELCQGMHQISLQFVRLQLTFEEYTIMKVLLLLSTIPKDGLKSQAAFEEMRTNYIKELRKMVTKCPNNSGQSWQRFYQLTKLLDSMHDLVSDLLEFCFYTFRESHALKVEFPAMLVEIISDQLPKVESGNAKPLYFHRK
The assay is described as follows: co-transfection assay, MR antagonist. In kind it is cell-based. How it is done: CV-1 cells (African green monkey kidney fibroblasts) were cultured in the presence of Dulbecco's Modified Eagle Medium (DMEM) supplemented with 10% charcoal resin-stripped fetal bovine serum (CH-FBS) then transferred to 96-well microtiter plates one day prior to transfection.
Three to four replicates were used for each sample.
After 40 hours, the cells were washed with PBS, lysed with a Triton X-100-based buffer and assayed for LUC and β-Gal activities using a luminometer or spectrophotometer, respectively. For each replicate, the normalized response (NR) was calculated as: […]

The mark [3] stands for this setting: read-out: AR Potency Agon, Table 2.

Results on 4 molecules are retold here after patent publication US6462038B1, “Androgen receptor modulator compounds and methods” (Ligand Pharmaceuticals, Inc., priority 1999, dated 2002).

Like-named read-outs stand apart in the source and are kept apart here.

Regarding `CCN1CCOc2cc3c(cc21)c(C(F)(F)F)cc(=O)n3C` [Compound 104, 1-Ethyl-1,2,3,6-tetrahydro-6-methyl-9-(trifluoromethyl)-7H-[1,4]oxazino[3,2-g]quinolin-7-one], in assay [1], the EC50 was > 10 µM; the “AR Agonist CV-1 Cells Efficacy (%)” value was “na (na = not active (i.e. efficacy of < 20 and potency of > 10,000 nM for the cotransfection assay, and Ki > 1000 nM for the binding assay))”. Besides, in assay [1] (setting [3]), the EC50 is > 10 µM. The molecule also showed an IC50 in assay [2] of 1.8 µM.
Take `CN1CCOc2cc3c(cc21)c(C(F)(F)F)cc(=O)n3C` [Compound 102, 1,2,3,6-Tetrahydro-1,6-dimethyl-9-(trifluoromethyl)-7H-[1,4]oxazino[3,2-g]quinolin-7-one]: in assay [1], the EC50 is > 10 µM; the “AR Agonist CV-1 Cells Efficacy (%)” value is “na^1 (na = not active (i.e. efficacy of < 20 and potency of > 10,000 nM for the cotransfection assay, and Ki > 1000 nM for the binding assay))”. Besides, in assay [1] (setting [3]), the EC50 is > 10 µM. In addition, the IC50 in assay [2] is > 10 µM.
On to `O=C1COc2cc3[nH]c(=O)cc(C(F)(F)F)c3cc2N1CC(F)(F)F` [Compound 137, 1,6-Dihydro-1-(2,2,2-trifluoroethyl)-9-(trifluoromethyl)-3H-[1,4]oxazino[3,2-g]-quinolin-2,7-dione], for which the EC50 in assay [1] and in assay [1] (setting [3]) was > 10 µM each time. For the same molecule, in assay [1], the “AR Agonist CV-1 Cells Efficacy (%)” value is “na (na = not active (i.e. efficacy of < 20 and potency of > 10,000 nM for the cotransfection assay, and Ki > 1000 nM for the binding assay))”. Moreover, the half-maximal inhibitory concentration (IC50) in assay [2] is > 10 µM.
Take `O=c1cc(C(F)(F)F)c2cc3c(cc2[nH]1)OCCN3CC(F)(F)F` [Compound 105, 1,2,3,6-Tetrahydro-1-(2,2,2-trifluoroethyl)-9-(trifluoromethyl)-7H-[1,4]oxazino[3,2-g]quinolin-7-one]: the 50% inhibitory concentration (IC50) in assay [2] is > 10 µM.
